Data: article PMC5428521, “Identification of a Novel, Small Molecule Partial Agonist for the Cyclic AMP Sensor, EPAC1” (Scientific Reports, 2017)
Where two headings read alike, the source gives them in different places.

Key:
Type in all cases: binding
[1] = target: T1, EPAC1-CNB (Homo sapiens, UniProt O95398); assay: 8-NBD-cAMP competition assay with EPAC1-CNB; conditions: for IC50: 7-point dose response, 75 µM top concentration, 0.75% DMSO
T1 construct: EPAC1-CNB (amino acids 169–318 of EPAC1); made in house; host or cells: BL-21 Escherichia coli (pGEX-6P-1)
T1 sequence (O95398 169-318 isoform O95398-3): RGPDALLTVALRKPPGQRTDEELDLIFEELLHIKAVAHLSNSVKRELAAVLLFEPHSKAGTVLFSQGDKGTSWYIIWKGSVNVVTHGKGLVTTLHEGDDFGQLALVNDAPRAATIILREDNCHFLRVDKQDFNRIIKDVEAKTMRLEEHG
Experimental: Optimisation of assay conditions was performed in 96 well black assay plates (Greiner). Comparison of reference molecules, dose response curves and pilot screen were done in black, low volume 384 assay plates (Greiner). Liquids were dispensed using a Biomek Fx laboratory automation workstation with a 96-multichannel pipetting head (Beckman Coulter) for optimisation, whereas the Echo® Liquid Handler (Labcyte) and Wellmate automated dispenser (Thermo Matrix) were employed for pilot screens (see library screening).
This was done using the optimised assay conditions developed during the study. Library compounds were transferred from pre-prepared, 1000x stock Echo® 384 LDV source plates (Labcyte) into black, low volume 384 assay plates (Greiner) at 25 nl volumes, using an Echo® Liquid Handler (Labcyte), maintaining 0.1–1% DMSO throughout. EPAC1-CNB (0.8 µM) was immediately added using a Wellmate automated dispenser (Thermo Matrix). Plates were centrifuged at 800 rpm, 10 s, and then incubated for 30 minutes, RT, to promote compound-protein complex formation. […] The assay was incubated at room temperature and the fluorescence intensity at 480/535 nm (ex/em) was measured after 4–15 hours using the Envision plate reader.

[2] = target: T1, EPAC1-CNB; assay: Ligand observed NMR (1D and waterLOGSY) with EPAC1-CNB; conditions: compound 50 µM, protein 2.5 µM
From the text: (§1) Given that I942 seems to exert selective agonist properties against EPAC1, but not EPAC2, we next sought to validate whether our isolated ligands can interact with EPAC1 and EPAC2. Ligand observed nuclear magnetic resonance (NMR) is a valuable tool for the identification and validation of small molecule ligands. We therefore used one dimensional proton (1D) and water-ligand observed by gradient spectroscopy (waterLOGSY) NMR to confirm the ability of I942 and I178 to bind to the purified CNBs of EPAC1 and EPAC2, in comparison with the commercially available EPAC1 antagonist, ESI-09[32]. In order to assess ligand/CNB interaction, 1D and waterLOGSY experiments were performed on each compound (50 µM) in the presence or absence of 2.5 µM EPAC-CNB. In the absence of protein, each test compound produced a well-resolved 1D spectrum and a region of each spectrum was chosen to display distinctive spectral peaks originating from the ligand (Fig. 6). In the absence of protein, the corresponding waterLOGSY peaks were small, or absent, due to the negligible signal produced by saturation transfer from water to the freely tumbling small molecule. […] In waterLOGSY spectra, protein-mediated saturation transfer can only occur if the protein-ligand complex has a substantial lifetime. […]
(§2) (A) One dimensional proton (1D) and waterLOGSY (WL) spectra were performed on samples containing hit compound I942 (50 µM) in the absence and presence of EPAC1-CNB, EPAC2-CNB or GST alone, as indicated (2.5 µM). […] Interaction between compound and protein was assessed through comparison of the compound alone and protein-compound sample spectra. […]
(§3) All NMR spectra were recorded on a Bruker AVANCE IIIHD 600 spectrometer equipped with a TCI cryoprobe at 285 K. Test compounds were prepared in deuterated DMSO and diluted to given experimental concentrations in NMR buffer (20 mM Na2PO4, pH 7.0, 50 mM NaCl, 0.1% (w/v) NaN3, 5% (v/v) D2O) with a final DMSO concentration below 0.1%. […] One dimensional proton (1D) and waterLOGSY spectra were recorded for all compounds tested, using pulse sequences as previously described. […]

[3] = target: GST (Schistosoma japonicum, UniProt P08515); assay: Ligand observed NMR (1D and waterLOGSY) with GST alone; conditions: compound 50 µM, GST 2.5 µM
From the text: as §1, §2, §3

GST, sequence (P08515 whole entry): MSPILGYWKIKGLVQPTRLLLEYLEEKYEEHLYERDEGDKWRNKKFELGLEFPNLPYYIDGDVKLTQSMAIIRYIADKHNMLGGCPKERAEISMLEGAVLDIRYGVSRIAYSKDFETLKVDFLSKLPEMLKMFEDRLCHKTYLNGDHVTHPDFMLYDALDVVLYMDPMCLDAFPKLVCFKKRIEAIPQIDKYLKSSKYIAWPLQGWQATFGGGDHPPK

Structure (SMILES) | Kd [1] | IC50 ([1]; IC50, 8-NBD-cAMP binding assay) | affinity, fold lower than that of cAMP ([1]; competition assay, isolated CNB domain) | NMR interaction [2] | NMR interaction with GST alone [3] | IC50 ([1]; read-out: IC50, 8-NBD-cAMP binding assay)
Cc1ccc(S(=O)(=O)NC(=O)COc2ccc3ccccc3c2)c(C)c1 [I942, N-(2,4-dimethylbenzenesulfonyl)-2-(naphthalen-2-yloxy)acetamide] | ~40 µM | ~35 µM | about 10 fold | Strong, Specific Interaction | No peak broadening | –
O=C(COc1ccc2ccccc2c1)NS(=O)(=O)c1ccccc1 [I178, N-(benzenesulfonyl)-2-(naphthalen-2-yloxy)acetamide] | – | – | – | Strong, Specific Interaction | No peak broadening | ~40 µM
